The text below walks through data of patent US11603372B2, “Compounds and therapeutic uses thereof” (VioGen Biosciences, LLC, priority 2017, dated 2023).

Sequence of PIKfyve (Q9Y2I7 whole entry): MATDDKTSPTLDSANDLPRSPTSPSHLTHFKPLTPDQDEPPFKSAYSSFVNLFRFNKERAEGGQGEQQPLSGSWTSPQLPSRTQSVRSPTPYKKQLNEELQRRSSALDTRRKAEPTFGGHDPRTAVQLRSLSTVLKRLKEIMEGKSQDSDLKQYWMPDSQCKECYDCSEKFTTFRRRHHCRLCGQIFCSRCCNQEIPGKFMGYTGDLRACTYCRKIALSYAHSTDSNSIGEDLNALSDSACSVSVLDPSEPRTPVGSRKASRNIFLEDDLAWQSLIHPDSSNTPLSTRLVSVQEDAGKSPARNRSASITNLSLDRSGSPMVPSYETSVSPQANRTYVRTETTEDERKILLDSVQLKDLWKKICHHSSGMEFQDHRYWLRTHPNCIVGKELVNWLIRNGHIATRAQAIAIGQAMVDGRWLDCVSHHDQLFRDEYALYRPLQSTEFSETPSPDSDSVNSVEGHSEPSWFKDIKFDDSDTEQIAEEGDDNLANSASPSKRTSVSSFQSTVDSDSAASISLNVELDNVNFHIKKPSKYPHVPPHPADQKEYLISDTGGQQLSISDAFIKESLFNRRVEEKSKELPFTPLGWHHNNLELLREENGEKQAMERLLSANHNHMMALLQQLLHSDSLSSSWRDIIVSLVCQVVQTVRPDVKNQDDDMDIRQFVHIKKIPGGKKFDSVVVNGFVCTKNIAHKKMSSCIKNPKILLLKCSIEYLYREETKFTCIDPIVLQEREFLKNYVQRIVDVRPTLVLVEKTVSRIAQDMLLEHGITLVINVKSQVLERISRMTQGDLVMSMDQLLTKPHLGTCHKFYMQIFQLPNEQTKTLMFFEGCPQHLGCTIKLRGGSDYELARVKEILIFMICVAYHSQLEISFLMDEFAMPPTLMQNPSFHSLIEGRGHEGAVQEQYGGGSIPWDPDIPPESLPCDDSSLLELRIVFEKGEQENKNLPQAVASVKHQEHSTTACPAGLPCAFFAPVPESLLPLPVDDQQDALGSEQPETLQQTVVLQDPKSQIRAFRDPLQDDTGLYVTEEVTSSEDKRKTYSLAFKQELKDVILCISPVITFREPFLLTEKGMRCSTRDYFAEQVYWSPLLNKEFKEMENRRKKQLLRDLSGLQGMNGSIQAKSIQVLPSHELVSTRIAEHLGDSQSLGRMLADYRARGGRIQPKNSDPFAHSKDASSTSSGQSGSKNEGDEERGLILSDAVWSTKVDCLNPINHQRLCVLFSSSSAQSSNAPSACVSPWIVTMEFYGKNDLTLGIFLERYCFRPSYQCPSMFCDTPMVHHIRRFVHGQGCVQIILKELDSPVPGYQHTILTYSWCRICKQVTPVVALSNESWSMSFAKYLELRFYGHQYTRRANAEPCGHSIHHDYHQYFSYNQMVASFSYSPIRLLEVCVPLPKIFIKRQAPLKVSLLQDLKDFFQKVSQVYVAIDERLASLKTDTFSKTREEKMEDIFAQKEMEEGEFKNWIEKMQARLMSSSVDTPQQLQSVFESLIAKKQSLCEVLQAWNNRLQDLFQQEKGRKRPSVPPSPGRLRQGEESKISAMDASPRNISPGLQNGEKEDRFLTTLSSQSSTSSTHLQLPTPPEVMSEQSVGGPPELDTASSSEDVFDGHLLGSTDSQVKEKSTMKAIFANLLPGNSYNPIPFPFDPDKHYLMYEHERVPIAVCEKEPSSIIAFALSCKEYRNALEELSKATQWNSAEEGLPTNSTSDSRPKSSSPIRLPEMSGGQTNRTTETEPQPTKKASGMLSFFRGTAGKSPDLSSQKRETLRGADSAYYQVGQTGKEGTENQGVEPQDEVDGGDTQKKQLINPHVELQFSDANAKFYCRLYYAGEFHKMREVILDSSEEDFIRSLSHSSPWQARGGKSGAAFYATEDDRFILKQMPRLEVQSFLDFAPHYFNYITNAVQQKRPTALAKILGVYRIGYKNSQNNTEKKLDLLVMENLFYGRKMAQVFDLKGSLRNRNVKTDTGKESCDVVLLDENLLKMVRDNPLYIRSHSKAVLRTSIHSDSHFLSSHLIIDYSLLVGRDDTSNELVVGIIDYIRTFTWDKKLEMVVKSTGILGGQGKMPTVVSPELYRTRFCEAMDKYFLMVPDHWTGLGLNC

The assay concerns the target PIKfyve (Homo sapiens (Human), UniProt Q9Y2I7). Briefly: Kinase binding assay (kinase-tagged T7 phage, affinity beads, qPCR readout), Kd determination. The note with it: 11-point 3-fold compound dilution series. On the procedure: Kinase assays. For most assays, kinase-tagged T7 phage strains were prepared in an E. coli host derived from the BL21 strain. E. coli were grown to log-phase and infected with T7 phage and incubated with shaking at 32° C. until lysis. The lysates were centrifuged and filtered to remove cell debris. The remaining kinases were produced in HEK-293 cells and subsequently tagged with DNA for qPCR detection. Streptavidin-coated magnetic beads were treated with biotinylated small molecule ligands for 30 minutes at room temperature to generate affinity resins for kinase assays. The liganded beads were blocked with excess biotin and washed with blocking buffer (SeaBlock (Pierce), 1% BSA, 0.05% Tween 20, 1 mM DTT) to remove unbound ligand and to reduce non-specific binding. Binding reactions were assembled by combining kinases, liganded affinity beads, and test compounds in 1× binding buffer (20% SeaBlock, 0.17×PBS, 0.05% Tween 20, 6 mM DTT). Test compounds were prepared as 111× stocks in 100% DMSO. Kds were determined using an 11-point 3-fold compound dilution series with three DMSO control points. All compounds for Kd measurements are distributed by acoustic transfer (non-contact dispensing) in 100% DMSO. The compounds were then diluted directly into the assays such that the final concentration of DMSO was 0.9%. All reactions performed in polypropylene 384-well plate. Each was a final volume of 0.02 ml. The assay plates were incubated at room temperature with shaking for 1 hour and the affinity beads were washed with wash buffer (1×PBS, 0.05% Tween 20). The beads were then re-suspended in elution buffer (1×PBS, 0.05% Tween 20, 0.5 μM non-biotinylated affinity ligand) and incubated at room temperature with shaking for 30 minutes. The kinase concentration in the eluates was measured by qPCR.
An 11-point 3-fold serial dilution of each test compound was prepared in 100% DMSO at 100× final test concentration and subsequently diluted to 1× in the assay (final DMSO concentration=1%). Most Kds were determined using a compound top concentration=30,000 nM. If the initial Kd determined was <0.5 nM (the lowest concentration tested), the measurement was repeated with a serial dilution starting at a lower top concentration.
A general note: Quantitative PCR measures a nucleic acid by following its amplification.
One may read the Kd as the concentration at which binding is half-saturated. On to `Cc1cccc(/C=N/Nc2nc(N3CCOCC3)c3sc(C(=O)Nc4cccnc4)cc3n2)c1` [Example 4, 4-morpholino-2-[(2E)-2-(m-tolylmethylene)hydrazino]-N-(3-pyridyl)thieno[3,2-d]pyrimidine-6-carboxamide], for which the Kd was at most 1 nM.

The compound `Cc1cccc(/C=N/Nc2nc(N3CCOCC3)c3sc(C(=O)Nc4ccncc4)cc3n2)c1` [Example 5, 4-morpholino-2-[(2E)-2-(m-tolylmethylene)hydrazino]-N-(4-pyridyl)thieno[3,2-d]pyrimidine-6-carboxamide] came in with a Kd of 1 to 10 nM.

On to `Cc1cccc(/C=N/Nc2nc(N3CCOCC3)c3cc(-c4c(C)n[nH]c4C)sc3n2)c1` [Example 268, 6-(3,5-dimethyl-1H-pyrazol-4-yl)-4-morpholino-N-[(E)-m-tolylmethyleneamino]thieno[2,3-d]pyrimidin-2-amine], for which the Kd lay within 1 to 10 nM.

For `Cc1cccc(/C=N/Nc2nc(N3CCOCC3)c3sc(-c4cnco4)cc3n2)c1` [Example 9, 4-Morpholino-N-[(E)-m-tolylmethyleneamino]-6-oxazol-5-yl-thieno[3,2-d]pyrimidin-2-amine], the Kd was 1 to 10 nM.

The compound `Cc1cccc(/C=N/Nc2nc(N3CCOCC3)c3sc(C(=O)NC4CNC4)cc3n2)c1` [Example 22, N-(azetidin-3-yl)-4-morpholino-2-[(2E)-2-(m-tolylmethylene)hydrazino]thieno[3,2-d]pyrimidine-6-carboxamide] showed an equilibrium dissociation constant (Kd) of 1 to 10 nM.

`Cc1cccc(/C=N/Nc2nc(N3CCOCC3)c3sc(-c4ccncc4)cc3n2)c1` [Example 2, 4-morpholino-N-[(E)-m-tolylmethyleneamino]-6-(4-pyridyl)thieno[3,2-d]pyrimidin-2-amine] came in with a Kd of at most 1 nM.

As to `Cc1cccc(/C=N/Nc2nc(N3CCOCC3)c3sc(-c4c(C)noc4C)cc3n2)c1` [Example 264, 6-(3,5-dimethylisoxazol-4-yl)-4-morpholino-N-[(E)-m-tolylmethyleneamino]thieno[3,2-d]pyrimidin-2-amine], the Kd is at most 1 nM.

Compound `Cc1cccc(/C=N/Nc2nc(N3CCOCC3)c3cc(-c4cnco4)sc3n2)c1` [Example 12, 4-morpholino-N-[(E)-m-tolylmethyleneamino]-6-oxazol-5-yl-thieno[2,3-d]pyrimidin-2-amine] returned a Kd of at most 1 nM.

On to `Cc1cccc(/C=N/Nc2nc(N3CCOCC3)c3sccc3n2)c1` [Example 3, 4-morpholino-N-[(E)-m-tolylmethyleneamino]thieno[3,2-d]pyrimidin-2-amine], for which the Kd fell in the range of 1 to 10 nM.

Take `Cc1cccc(CCNc2nc(N3CCOCC3)c3sc(-c4ccncc4)cc3n2)c1` [Example 255, 4-morpholino-N-[2-(m-tolyl)ethyl]-6-(4-pyridyl)thieno[3,2-d]pyrimidin-2-amine]: the Kd is 10 to 60 nM.

Compound `Cc1cccc(/C=N/Nc2nc(N3CCOCC3)c3sc(-c4ccccc4)cc3n2)c1` [Example 1, 4-morpholino-N-[(E)-m-tolylmethyleneamino]-6-phenyl-thieno[3,2-d]pyrimidin-2-amine] had a Kd of 1 to 10 nM.

`Cc1cccc(/C=N/Nc2nc(N3CCOCC3)c3cc(-c4ccncc4)sc3n2)c1` [Example 11, 4-morpholino-N-[(E)-m-tolylmethyleneamino]-6-(4-pyridyl)thieno[2,3-d]pyrimidin-2-amine] gave a Kd of 1 to 10 nM.

With `Cc1cccc(/C=N/Nc2nc(N3CCOCC3)c3ccsc3n2)c1` [Example 10, 4-morpholino-N-[(E)-m-tolylmethyleneamino]thieno[2,3-d]pyrimidin-2-amine], the Kd lay within 10 to 60 nM.

`Cc1cccc(/C=N/Nc2nc(N3CCOCC3)c3sc(-c4cnn(C)c4)cc3n2)c1` [Example 262, 6-(1-methylpyrazol-4-yl)-4-morpholino-N-[(E)-m-tolylmethyleneamino]thieno[3,2-d]pyrimidin-2-amine] displayed a Kd of at most 1 nM.

Compound `Cc1cccc(/C=N/Nc2nc(N3CCOCC3)c3cc(-c4c(C)noc4C)sc3n2)c1` [Example 267, 6-(3,5-dimethylisoxazol-4-yl)-4-morpholino-N-[(E)-m-tolylmethyleneamino]thieno[2,3-d]pyrimidin-2-amine] registered a Kd of 1 to 10 nM.

`Cc1cccc(/C=N/Nc2nc(N3CCOCC3)c3sc(-c4cccnc4)cc3n2)c1` [Example 261, 4-morpholino-N-[(E)-m-tolylmethyleneamino]-6-(3-pyridyl)thieno[3,2-d]pyrimidin-2-amine] gave a Kd of at most 1 nM.

The compound `Cc1cccc(/C=N/Nc2nc(N3CCOCC3)c3sc(-c4c(C)n[nH]c4C)cc3n2)c1` [Example 263, 6-(3,5-dimethyl-1H-pyrazol-4-yl)-4-morpholino-N-[(E)-m-tolylmethyleneamino]thieno[3,2-d]pyrimidin-2-amine] yielded a Kd of at most 1 nM.

As to `Clc1cccc(/C=N/Nc2nc(N3CCOCC3)c3cc(-c4cnco4)sc3n2)c1` [Example 14, N-[(E)-(3-chlorophenyl)methyleneamino]-4-morpholino-6-oxazol-5-yl-thieno[2,3-d]pyrimidin-2-amine], the Kd lay in the range of 10 to 60 nM.

In turn, `Cc1cccc(/C=N/Nc2nc(N3CCOCC3)c3sc(C(=O)NC4COC4)cc3n2)c1` [Example 7, 4-morpholino-2-[(2E)-2-(m-tolylmethylene)hydrazino]-N-(oxetan-3-yl)thieno[3,2-d]pyrimidine-6-carboxamide] displayed a Kd of at most 1 nM.
